Here are results for 8 compounds from article PMC3514116 (BMC Plant Biology, 2012).

Marks after values point to notes of the source that are not given here. Ends that are not written are not given here.

In one data set the test system is tobacco leaves. In words: Phytotoxicity, tobacco leaf inoculation assay. The format is in vivo, Nicotiana benthamiana. Conditions: for Phytotoxicity at 150 μM (inoculation): lesion diameter: 100 μl of 150 μM peptide inoculated into tobacco leaf mesophyll, three days, mean and standard error, at least three inoculations. On the procedure: Tobacco (Nicotiana benthamiana) plants were grown from seed in a heated glasshouse and used between 20 and 30 days old. One hundredμl chemically synthesized peptides at 50, 100, 150 or 250 μM were inoculated into the mesophylls of fully expanded tobacco leaves (previously wounded with a needle), using a syringe without needle, and plants were kept at standard glasshouse conditions for three days. Up to six independent inoculations were carried out in a single leaf, and at least three independent inoculations were performed per peptide and concentration, randomly distributed in different leaves and plants. Toxicity was measured as the lesion diameter.

The subject of data set [1] is erythrocyte suspensions of fresh human blood. In words: Hemolytic activity (hemoglobin release). Conditions: human erythrocytes 5% v/v, TRIS/NaCl pH 7.2, 150 μM peptide, 1 h 37°C, A540. The format is cell-based. On the procedure: Hemoglobin release from erythrocyte suspensions of fresh human blood (5% v/v) was used to evaluate hemolytic activity of synthetic peptides. Briefly, aseptically collected blood (BD vacutainer K2E System with EDTA, Belliver Industrial State, Plymouth, UK) was centrifuged at 6,000 g for 5 min, washed with 10 mM TRIS, 150 mM NaCl, pH 7.2 and suspended in the same buffer. Fifty μl of peptide solutions at 300 μM were mixed with 50 μl aliquots of erythrocyte suspensions and incubated for 1h at 37 °C with shaking. After centrifugation, the supernatants were transferred to microplate wells with 80 μl H2O and the 540 nm absorbance was monitored with a Bioscreen plate reader. Hemolysis percentages were calculated relative to mellitin and TRIS buffer.

A further data set has as its system rice Senia seeds. Description: Phytotoxicity, rice germination assay. The format is in vivo, Oryza sativa L. Conditions: for Phytotoxicity (germination): minimal peptide concentration causing significant alteration of shoot length: 12 Senia seeds per treatment germinated 7 days in 0, 8, 16, 32, 64 μM peptide, 28°C, one-way ANOVA; for Effect on rice seedling development at high concentrations: germination test, Senia seeds, 7 days, 125 and 250 μM also tested. On the procedure:
For each treatment, a total of 12 surface-sterilized Senia seeds were germinated in 500 μl water or peptide solution at the appropriate concentration (0, 8, 16, 32 and 64 μM) in a culture chamber (28 ± 1°C with a photoperiod of 16 h light / 8 h dark under fluorescent Sylvania Cool White lamps) for seven days. Seedling morphology was recorded and shoot length was measured.

The subject of the next data set is mice. To be noted: cited from earlier work.
The test system of data set [2] is erythrocyte suspensions of fresh human blood. Conditions: human erythrocytes 5% v/v, TRIS/NaCl pH 7.2, 1 h 37°C, A540, relative to mellitin; confidence interval for α = 0.05; cited from earlier work.
For data set [3], the system named is Dickeya chrysanthemi 1552-10-1 (Dc). In words: In vitro growth inhibition (MIC), Dickeya chrysanthemi. Conditions: 10^8 bacterial CFU/ml suspension in TSB, microtiter plate, 25°C 48 h, OD 600 nm; three replicates, two experimental replicates.
Procedure: (§1) Peptides were solubilized in sterile Milli-Q H2O to a concentration of 1 mM and filter sterilized through a 0.22 μm pore filter. […] Bacterial strains were stored at −80°C in Luria Bertani (LB) broth with glycerol (20%). After 24 h (Ea, Pss and Dc) or 48 h (Xav) growth in LB agar at 25°C, bacterial colonies were scraped off the surface, suspended in sterile H2O and adjusted to 10^8 CFU/ml. The fungal strain was stored at 4°C in the particulate solid carrier perlite, on fresh potato dextrose agar (PDA). Fv cultures were prepared in potato dextrose broth (PDB) and incubated for one week at 25°C in the dark in a rotary shaker at 125 rpm. They were filtered through several layers of sterile cheesecloth to eliminate macroconidia and mycelial growth. The effluent was centrifuged at 8,000 rpm for 20 min at 4°C and the pellet was suspended in sterile water. Microconidia concentration was determined in a counting chamber.
(§2) Serial dilutions of synthetic peptides were prepared at 400, 200, 100, 50, 25, 12.5 and 6 μM. […] Microplates were incubated at 25°C for 48 h (bacterial strains) or 22°C for 6 days (Fv), and optical densities at 600 nm were recorded hourly (every two hours for Fv) after 20 s shaking. […]
Data set [4] deals with Xanthomonas axonopodis pv. vesicatoria 2133-2 (Xav). Description: In vitro growth inhibition (MIC), Xanthomonas axonopodis pv. vesicatoria. Conditions: 10^8 bacterial CFU/ml suspension in TSB, microtiter plate, 25°C 48 h, OD 600 nm; three replicates, two experimental replicates.
Procedure: as §1, §2
The test system of data set [5] is Pseudomonas syringae pv. syringae EPS94 (Pss). Description: In vitro growth inhibition (MIC), Pseudomonas syringae pv. syringae. To be noted: 10^8 bacterial CFU/ml suspension in TSB, microtiter plate, 25°C 48 h, OD 600 nm; three replicates, two experimental replicates.
Procedure: as §1, §2
Data set [6] concerns Erwinia amylovora PMV6076 (Ea). Description: In vitro growth inhibition (MIC), Erwinia amylovora. Conditions: 10^8 bacterial CFU/ml suspension in TSB, microtiter plate, 25°C 48 h, OD 600 nm; three replicates, two experimental replicates; MIC = lowest concentration with no growth.
Procedure: as §1, §2

Turning to `CC[C@H](C)[C@H](NC(=O)[C@H](CCCCN)NC(=O)[C@H](CCCCN)NC(=O)[C@H](Cc1ccccc1)NC(=O)[C@H](CC(C)C)NC(=O)[C@H](CCCCN)NC(=O)[C@@H](N)CCCCN)C(=O)N[C@@H](CC(C)C)C(=O)N[C@@H](CCCCN)C(=O)N[C@@H](Cc1ccc(O)cc1)C(=O)N[C@@H](CC(C)C)C(=O)N[C@@H](CCCCN)C(=O)N[C@@H](CC(=O)O)C(=O)N[C@@H](CCC(=O)O)C(=O)N[C@@H](CC(C)C)C(N)=O` [BP100.1], in the data set with tobacco leaves, the “Phytotoxicity at 150 μM (inoculation): lesion diameter” value (shortened to “Phytotoxicity at 150 μM (inoculation)”) is listed as 1.17 cm. Also, in data set [1], the “Hemolytic activity at 150 μM, ratio between each peptide and the reference peptide BP100” value is recorded as under 1. Further, the “Phytotoxicity (germination): minimal peptide concentration causing significant alteration of shoot length” value in the data set with rice Senia seeds was 64 µM.
For `CC[C@H](C)[C@H](NC(=O)[C@H](CC(C)C)NC(=O)[C@H](CCCCN)NC(=O)[C@H](Cc1ccc(O)cc1)NC(=O)[C@H](CC(C)C)NC(=O)[C@H](C)NC(=O)[C@@H]1CCCN1C(=O)CNC(=O)[C@H](C)NC(=O)[C@H](CC(C)C)NC(=O)[C@H](Cc1ccc(O)cc1)NC(=O)[C@H](CCCCN)NC(=O)[C@H](CC(C)C)NC(=O)[C@@H](NC(=O)[C@H](CCCCN)NC(=O)[C@H](CCCCN)NC(=O)[C@H](Cc1ccccc1)NC(=O)[C@H](CC(C)C)NC(=O)[C@H](CCCCN)NC(=O)[C@@H](N)CCCCN)[C@@H](C)CC)C(=O)N[C@@H](CCCCN)C(=O)N[C@@H](CCCCN)C(=O)N[C@@H](Cc1ccccc1)C(=O)N[C@@H](CC(C)C)C(=O)N[C@@H](CCCCN)C(=O)N[C@@H](CCCCN)C(=O)N[C@@H](CCCCN)C(=O)N[C@@H](CC(=O)O)C(=O)N[C@@H](CCC(=O)O)C(=O)N[C@@H](CC(C)C)C(N)=O` [BP100.2i], in that order: 1.32 ± 0.06^b cm, 4 and 16 µM.
Take `CC[C@H](C)[C@H](NC(=O)[C@H](CCCCN)NC(=O)[C@H](CCCCN)NC(=O)[C@H](Cc1ccccc1)NC(=O)[C@H](CC(C)C)NC(=O)[C@H](CCCCN)NC(=O)[C@@H](N)CCCCN)C(=O)N[C@@H](CC(C)C)C(=O)N[C@@H](CCCCN)C(=O)N[C@@H](Cc1ccc(O)cc1)C(=O)N[C@@H](CC(C)C)C(N)=O` [BP100]: in the data set on tobacco leaves, the “Phytotoxicity at 150 μM (inoculation)” value is listed as 0.90 ± 0.05^a cm. In the data set on mice, the “Biocompatibility in acute oral toxicity tests” value is “highly biocompatible”. The “Hemolytic activity at 150 μM” value in [2] is given as 22.0 ± 2.8%. In data set [3], the “Antimicrobial activity Dc, minimal inhibitory concentration (MIC)” value is 5 to 10 µM. Further, the “Antimicrobial activity Xav, minimal inhibitory concentration (MIC)” value in data set [4] is 5.0 to 10 µM. In the data set with rice Senia seeds, the “Phytotoxicity (germination): minimal peptide concentration causing significant alteration of shoot length” value amounted to 64 µM and the “Effect on rice seedling development at high concentrations” value was “barely effected root growth but almost completely inhibited shoot development”.
`CC[C@H](C)[C@H](NC(=O)[C@H](CCCCN)NC(=O)[C@H](CCCCN)NC(=O)[C@H](Cc1ccccc1)NC(=O)[C@H](CC(C)C)NC(=O)[C@H](CCCCN)NC(=O)[C@@H](N)CCCCN)C(=O)N[C@@H](CC(C)C)C(=O)N[C@@H](CCCCN)C(=O)N[C@@H](Cc1ccc(O)cc1)C(=O)N[C@@H](CC(C)C)C(=O)O` [unmodified BP100]: the “Phytotoxicity at 150 μM (inoculation)” value in the data set on tobacco leaves is on record as 0.80 ± 0.02^a cm. Further, the “Hemolytic activity at 150 μM, ratio between each peptide and the reference peptide BP100” value in data set [1] is 1. Further, in [5], the “Antimicrobial activity Pss, minimal inhibitory concentration (MIC)” value was 5.0 to 10 µM. In data set [3], the “Antimicrobial activity Dc, minimal inhibitory concentration (MIC)” value was in the range of 10 to 20 µM. In [6], the “Antimicrobial activity Ea, minimal inhibitory concentration (MIC)” value was in the range of 5.0 to 10 µM. The “Antimicrobial activity Xav, minimal inhibitory concentration (MIC)” value in [4] lay in the range of 10 to 20 µM. In addition, the “Phytotoxicity (germination): minimal peptide concentration causing significant alteration of shoot length” value in the data set on rice Senia seeds turned out to be 64 µM.
Consider “KKLFKKILKYLAGPAKKLFKKILKYLAGPAKKLFKKILKYLKDEL-NH2 (C-terminus assumed) [BP100.3]”, for which the “Phytotoxicity at 150 μM (inoculation)” value in the data set on tobacco leaves is reported as 1.38 ± 0.04^b cm. For the same compound, the “Hemolytic activity at 150 μM, ratio between each peptide and the reference peptide BP100” value in [1] came to 4. The “Phytotoxicity (germination): minimal peptide concentration causing significant alteration of shoot length” value with rice Senia seeds stood at 16 µM.
Consider “KKLFKKILKYLAGPAKKLFKKILKYLKDEL-NH2 (C-terminus assumed) [BP100.2]”, for which the “Phytotoxicity at 150 μM (inoculation)” value in the data set on tobacco leaves was 1.15 cm. Also, the “Hemolytic activity at 150 μM, ratio between each peptide and the reference peptide BP100” value in data set [1] worked out at 3. In the data set with rice Senia seeds, the “Phytotoxicity (germination): minimal peptide concentration causing significant alteration of shoot length” value was 32 µM.
As for “KKLFKKILKYLTTGLPALISAGPASILAPLGTTLYKLIKKFLKKKDEL-NH2 (C-terminus assumed) [BP100.2mi]”, the “Phytotoxicity at 150 μM (inoculation)” value in the data set with tobacco leaves is 1.46 ± 0.12^b cm. Besides, in data set [1], the “Hemolytic activity at 150 μM, ratio between each peptide and the reference peptide BP100” value worked out at 5. For the same compound, in the data set with rice Senia seeds, the “Phytotoxicity (germination): minimal peptide concentration causing significant alteration of shoot length” value came to 16 µM.
Regarding “mellitin: highly cytotoxic, potent hemolytic natural AMP, 26 amino acids, positive control [reference compound]”, in the data set on tobacco leaves (inoculation of 50 to 250 μM, same doses, positive control), the “Lesions in tobacco leaves compared with BP100 and BP100 derivatives” value is “more severe lesions”. For the same compound, in the data set with rice Senia seeds, the “Effect on rice seedling development at high concentrations” value was “predominantly inhibited root growth while allowing moderate shoot development”.
